pIC50: −log10 of the molar value.
These molecules were tested against T1, Autophosphorylated AurA kinase (Homo sapiens, UniProt O14965) (assay: AurA Luminescence-Based ATP Depletion Enzyme Assay). Settings: 10 μM ATP.
T1 construct: made in house; host or cells: Sf9 insect cells
T1 sequence (O14965 1-403): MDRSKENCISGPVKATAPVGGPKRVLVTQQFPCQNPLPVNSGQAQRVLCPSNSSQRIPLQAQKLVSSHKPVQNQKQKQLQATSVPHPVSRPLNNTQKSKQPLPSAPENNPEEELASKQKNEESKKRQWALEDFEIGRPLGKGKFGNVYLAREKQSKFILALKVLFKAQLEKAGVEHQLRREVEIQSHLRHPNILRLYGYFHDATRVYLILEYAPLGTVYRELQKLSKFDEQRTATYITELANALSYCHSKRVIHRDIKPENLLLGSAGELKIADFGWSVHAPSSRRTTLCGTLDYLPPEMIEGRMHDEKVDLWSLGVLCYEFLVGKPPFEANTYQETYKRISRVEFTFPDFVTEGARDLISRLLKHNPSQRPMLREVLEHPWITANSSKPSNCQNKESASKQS
Format: biochemical
Protocol: AurA Luminescence-Based ATP Depletion Enzyme Assay
Materials: Kemptide peptide substrate=LRRASLG (Biopeptide, San Diego, Calif.), ATP (Sigma Cat#A-3377, FW=551), HEPES buffer, pH 7.5, 10% Brij 35 (Calbiochem Cat#203728), MgCl2, Staurosporine (Streptomyces sp. Sigma Cat#85660-1MG), white Costar 384-well flat-bottom plate (VWR Cat#29444-088), Autophosphorylated AurA kinase (see below), Kinase-Glo™ (Promega Cat#V6712).
Stock Solutions: 10 mM Kemptide peptide (7.72 mg/ml in water), stored at −20° C.; 100 mM HEPES buffer+0.015% Brij 35, pH 7.5 (5 ml 1M HEPES stock+75 μL 10% Brij 35+45 ml miliQH2O); 10 mM ATP (5.51 mg/ml in dH2O) stored at −20° C. (diluted 50 μl into total of 10 ml miliQH2O daily=50 μM ATP working stock); 100 mM MgCl2; 200 μM Staurosporine, 2× Kinase-Glo™ reagent (made fresh or stored at −20° C.).
AurA Autophosphorylation Reaction: ATP and MgCl2 were added to 1-5 mg/ml AurA at final concentrations of 10 mM and 100 mM, respectively. The autophosphorylation reaction was incubated at 21° C. for 2-3 h. The reaction was stopped by the addition of EDTA to a final concentration of 50 mM, and samples were flash frozen with liquid N2 and stored at −80° C.
Standard Assay Setup for 384-well format (20 μl kinase reaction, 40 μl detection reaction): 10 mM MgCl2; 0.2 mM Kemptide peptide; 1 μl test compound (in DMSO); 0.3 μg/ml Autophosphorylated AurA kinase; 10 μM ATP; 100 mM HEPES+0.015% Brij buffer. Positive controls contained DMSO with no test compound. Negative controls contained 5 μM staurosporine. The kinase reactions were initiated at time t=0 by the addition of ATP. Kinase reactions were incubated at 21° C. for 45 min, then 20 μl of Kinase-Glo™ reagent were added to each well to quench the kinase reaction and initiate the luminescence reaction. After a 20 min incubation at 21° C., the luminescence was detected in a plate-reading luminometer.
The Sf9 insect cell pellets (˜18 g) produced from 6 L of cultured cells expressing human Aurora-2 were resuspended in 50 mM Na Phosphate pH 8.0, 500 mM NaCl, 10% glycerol, 0.2% n-octyl-β-D-glucopyranoside (BOG) and 3 mM β-Mercaptoethanol (BME). One tablet of Roche Complete, EDTA-free protease inhibitor cocktail (Cat#1873580) and 85 units Benzonase (Novagen Cat#70746-3)) were added per 1 L of original culture. Pellets were resuspended in approximately 50 ml per 1 L of original culture and were then sonicated on ice with two 30-45 sec bursts (100% duty cycle). Debris was removed by centrifugation and the supernatant was passed through a 0.8 μm syringe filter before being loaded onto a 5 ml Ni^2+ HiTrap column (Pharmacia). The column was washed with 6 column volumes of 50 mM Na Phosphate pH 8.0, 500 mM NaCl, 10% glycerol, 3 mM BME. The protein was eluted using a linear gradient of the same buffer containing 500 mM Imidazole. The eluant (24 ml) was cleaved overnight at 4° C. in a buffer containing 50 mM Na Phosphate pH 8.0, 500 mM NaCl, 10% glycerol, 3 mM BME and 10,000 units of TEV (Invitrogen Cat#10127-017). The protein was passed over a second nickel affinity column as described above; the flow-through was collected. The cleaved protein fractions were combined and concentrated using spin concentrators. Further purification was done by gel filtration chromatography on a S75 sizing column in 50 mM Na Phosphate (pH 8.0), 250 mM NaCl, 1 mM EDTA, 0.1 mM AMP-PNP or ATP buffer, and 5 mM DTT. The cleanest fractions were combined and concentrated to approximately 8-11 mg/ml, and were either flash frozen in liquid nitrogen in 120 μl aliquots and stored at −80° C., or stored at 4° C.
Molecule `CCN(CCC#N)S(=O)(=O)c1ccc(-c2ccnc(Nc3cccc(C)c3)n2)s1` has a pIC50 of over 7.00. With `CC(O)c1cccc(Nc2nccc(-c3ccc(-c4cccnc4)s3)n2)c1` (stereo not shown) the pIC50 was 6.30 to 7.00. Molecule `COc1ccc(Nc2nccc(-c3ccc(Br)s3)n2)cc1OC` has a pIC50 of over 7.00. `C[C@@H](NC(=O)c1ccc(-c2ccnc(Nc3cccc(CN4CCN(CCO)CC4)c3)n2)s1)c1ccccc1` gave a pIC50 of over 7.00. With `CC(O)c1cccc(Nc2nccc(-c3ccc(S(=O)(=O)Cc4ccccc4)s3)n2)c1` (stereo not shown) the pIC50 was 6.30 to 7.00. `CCN(CCC#N)S(=O)(=O)c1ccc(-c2ccnc(Nc3cccc(C(C)O)c3)n2)s1` (stereo not shown) was tested, and the pIC50 was over 7.00. `CN(C)C1CCN(c2cccc(Nc3nccc(-c4ccc(C(=O)NCc5ccco5)s4)n3)c2)C1` (stereo not shown) was tested, and the pIC50 was 6.30 to 7.00. With `O=C(c1cccc(Nc2nccc(-c3ccc(Br)s3)n2)c1)N1CCN(CCO)CC1` the pIC50 was 6.30 to 7.00. In the case of `C[C@@H](NC(=O)c1ccc(-c2ccnc(Nc3cccc(CN4CCC(O)CC4)c3)n2)s1)c1ccccc1`, the pIC50 was over 7.00. For `CN(Cc1ccccc1)C(=O)c1ccc(-c2ccnc(Nc3ccc(CCO)cc3)n2)s1`, the pIC50 was over 7.00. With `Brc1ccc(-c2ccnc(Nc3cccc(CN4CCOCC4)c3)n2)s1` the pIC50 was under 6.30. For `O=C(NCc1ccccc1)c1ccc(-c2ccnc(Nc3ccc(CCO)cc3)n2)s1`, the pIC50 was over 7.00. Work on `COc1ccc(Nc2nccc(-c3ccc(Br)s3)n2)cc1C(=O)N(C)C` yielded a pIC50 of 6.30 to 7.00. Molecule `CC(O)c1cccc(Nc2nccc(-c3ccc(-c4ccncc4)s3)n2)c1` (stereo not shown) has a pIC50 of under 6.30. `CCC(=O)Nc1ccc(-c2ccnc(Nc3cccc(C)c3)n2)s1` was tested, and the pIC50 was 6.30 to 7.00. Molecule `OC1CCN(Cc2cccc(Nc3nccc(-c4ccc(CNc5ccccc5Cl)s4)n3)c2)CC1` has a pIC50 of under 6.30. For `CCC1CCCCN1S(=O)(=O)c1ccc(-c2ccnc(Nc3cccc(C(C)O)c3)n2)s1` (stereo not shown), the pIC50 was 6.30 to 7.00. In the case of `CCN(CCC#N)C(=O)c1ccc(-c2ccnc(Nc3cccc(C(C)O)c3)n2)s1` (stereo not shown), the pIC50 was 6.30 to 7.00. Work on `CN(C)C(=O)c1cccc(Nc2nccc(-c3ccc(Br)s3)n2)c1` yielded a pIC50 of 6.30 to 7.00. For `CC(O)c1cccc(Nc2nccc(-c3ccc(-c4cccc(CC#N)c4)s3)n2)c1` (stereo not shown), the pIC50 was 6.30 to 7.00. In the case of `CNC(=O)c1ccc(-c2ccc(-c3ccnc(Nc4cccc(C(C)O)c4)n3)s2)cc1` (stereo not shown), the pIC50 was 6.30 to 7.00. In the case of `CC(O)c1cccc(Nc2nccc(-c3ccc(S(=O)(=O)N(C)C)s3)n2)c1` (stereo not shown), the pIC50 was over 7.00.

From patent US7977481B2, “Pyrimidinyl-thiophene kinase modulators” (SGX Pharmaceuticals, Inc., priority 2005, dated 2011)
